In patent US20170174649A1, “ESTERS OF ACETALS, COMPOSITION THEREOF, METHODS OF PREPARATION AND MAIN USES THEREOF IN COSMETIC AREA” (GLYCEROSOLUTION QUIMICA LTDA, priority 2015, published 2017):

Key:
[1] = Solubility of sunscreens using cocoil glyceryl acetal as solubilizing agent; format: physicochemical; details: solvent cocoil glyceryl acetal
[2] = Tests of skin irritation (OECD and GHS); format: in vivo
Description: Two new batches of cocoil glyceryl acetal were sent to confirm the tests of dermal irritation.

[3] = Tests of oral toxicity (GHS classification); format: in vivo; details: rules of GHS
[4] = Tests of ocular irritation (OECD and GHS); format: in vivo; details: rules of OECD and GHS
Description: In the tests of ocular irritation, the product has been classified as non-irritating according to the rules of OECD and GHS.

Molecule | Solubility at 25° C. [1] | Skin irritation finding ([2]; one of the tests) | Skin irritation classification ([2]; two tests, rules of OECD and GHS) | Oral toxicity classification [3] | Ocular irritation classification [4]
COc1ccc(C(=O)CC(=O)c2ccc(C(C)(C)C)cc2)cc1 [4-(1,1-dimethylethyl)-4-methoxydibenzoylmethane] | 14.0 grams/100 grams of cocoil glyceryl acetal | – | – | – | –
CCCCCCOC(=O)c1ccccc1C(=O)c1ccc(N(CC)CC)cc1O [Diethylamino hydroxybenzoi hexyl benzoate] | 18.0 grams/100 grams of cocoil glyceryl acetal | – | – | – | –
CCCCC(CC)COC(=O)c1ccc(Nc2nc(Nc3ccc(C(=O)OCC(CC)CCCC)cc3)nc(Nc3ccc(C(=O)OCC(CC)CCCC)cc3)n2)cc1 (stereo not shown) [Ethylhexyl Triazone] | 16.0 grams/100 grams of cocoil glyceryl acetal | – | – | – | –
cocoil glyceryl acetal | – | mild dermal irritation | non-irritating | class 5 (non-toxic) | non-irritating
